Measurements as given in patent publication US10034861B2 (priority 2016, dated 2018).
Where two headings read alike, the source gives them in different places.

Columns and labels:
Assay type in all cases: biochemical
PDE1B = PDE1B (Homo sapiens (Human), UniProt Q01064); test: PDE1 inhibition assay (PDE1B); conditions: 15 nM tritium labelled cAMP, 1 hr at room temperature, SPA beads
Excerpt: (§1) Table 1 lists the IC50 value for inhibition of PDE1 by the compounds of the invention. […] PDE1 assays are described in the Experimental Section.

PDE1C = PDE1C (Homo sapiens (Human), UniProt Q14123); test: biochemical
Excerpt: as §1

PDE1A = PDE1A (Homo sapiens (Human), UniProt P54750); test: biochemical
Excerpt: as §1

[1] = 15 nM tritium labelled cAMP, 1 hr at room temperature, SPA beads

Sequence of PDE1A (P54750 whole entry): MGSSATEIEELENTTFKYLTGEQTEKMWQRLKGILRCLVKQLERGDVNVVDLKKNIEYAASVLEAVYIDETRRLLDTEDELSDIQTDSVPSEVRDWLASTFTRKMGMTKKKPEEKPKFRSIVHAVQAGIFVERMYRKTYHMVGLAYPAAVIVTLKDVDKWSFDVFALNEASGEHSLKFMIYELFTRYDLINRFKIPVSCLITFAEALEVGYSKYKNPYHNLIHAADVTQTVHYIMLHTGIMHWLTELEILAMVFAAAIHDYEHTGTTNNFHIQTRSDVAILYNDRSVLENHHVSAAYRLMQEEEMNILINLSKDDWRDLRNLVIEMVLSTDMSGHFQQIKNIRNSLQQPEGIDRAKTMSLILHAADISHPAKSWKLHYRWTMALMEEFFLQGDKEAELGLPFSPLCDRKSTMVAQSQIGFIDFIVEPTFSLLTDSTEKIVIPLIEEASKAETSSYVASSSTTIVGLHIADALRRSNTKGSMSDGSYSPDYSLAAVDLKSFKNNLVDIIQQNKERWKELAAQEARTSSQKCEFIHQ
Sequence of PDE1B (Q01064 whole entry): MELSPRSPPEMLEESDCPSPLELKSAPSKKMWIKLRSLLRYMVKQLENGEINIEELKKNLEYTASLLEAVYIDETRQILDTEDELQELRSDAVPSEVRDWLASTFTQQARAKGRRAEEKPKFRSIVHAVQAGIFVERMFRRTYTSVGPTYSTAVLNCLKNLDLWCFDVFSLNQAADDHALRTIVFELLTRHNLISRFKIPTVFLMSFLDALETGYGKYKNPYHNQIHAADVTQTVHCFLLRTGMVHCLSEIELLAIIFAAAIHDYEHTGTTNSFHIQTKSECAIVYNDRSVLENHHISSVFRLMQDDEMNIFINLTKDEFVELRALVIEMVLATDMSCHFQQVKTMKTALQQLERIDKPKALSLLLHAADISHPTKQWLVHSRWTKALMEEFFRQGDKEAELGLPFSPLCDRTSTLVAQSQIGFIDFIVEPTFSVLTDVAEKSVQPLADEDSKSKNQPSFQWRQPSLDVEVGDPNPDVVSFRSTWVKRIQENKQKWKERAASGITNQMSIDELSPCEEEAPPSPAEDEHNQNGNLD
Sequence of PDE1C (Q14123 whole entry): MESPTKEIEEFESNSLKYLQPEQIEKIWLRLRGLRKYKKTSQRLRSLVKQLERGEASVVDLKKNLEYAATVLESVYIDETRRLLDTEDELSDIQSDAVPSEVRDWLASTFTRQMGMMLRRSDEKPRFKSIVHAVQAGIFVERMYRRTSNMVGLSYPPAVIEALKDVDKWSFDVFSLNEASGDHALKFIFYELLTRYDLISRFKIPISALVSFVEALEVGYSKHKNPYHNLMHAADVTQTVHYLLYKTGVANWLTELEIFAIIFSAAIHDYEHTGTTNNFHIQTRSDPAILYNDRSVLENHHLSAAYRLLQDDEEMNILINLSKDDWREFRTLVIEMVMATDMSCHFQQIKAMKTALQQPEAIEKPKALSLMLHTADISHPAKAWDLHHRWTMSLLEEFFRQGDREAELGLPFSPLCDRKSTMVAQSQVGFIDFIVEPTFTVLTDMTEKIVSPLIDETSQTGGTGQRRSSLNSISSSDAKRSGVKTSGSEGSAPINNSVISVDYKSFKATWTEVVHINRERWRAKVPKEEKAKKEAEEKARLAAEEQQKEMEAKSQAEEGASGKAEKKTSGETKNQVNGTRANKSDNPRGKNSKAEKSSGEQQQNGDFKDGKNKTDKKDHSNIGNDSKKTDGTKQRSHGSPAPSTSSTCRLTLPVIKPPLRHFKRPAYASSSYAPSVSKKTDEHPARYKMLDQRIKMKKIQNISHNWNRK

Cc1nn(C(C)C)c2c(NCc3cnn(C)c3)cc(-c3nccs3)nc12 [Example 147, 1-isopropyl-3-methyl-N-[(1-methylpyrazol-4-yl)methyl]-5-thiazol-2-yl-pyrazolo[4,3-b]pyridin-7-amine]
IC50 (PDE1B; read-out: PDE1B, IC50): 2.1 nM | IC50 (PDE1C; [1]): 28 nM | IC50 (PDE1A; [1]): 12 nM

CCOc1ncccc1-c1cc(NCc2cnn(C)c2)c2c(n1)c(C)nn2C [Example 28, 5-(2-ethoxy-3-pyridyl)-1,3-dimethyl-N-[(1-methylpyrazol-4-yl)methyl]pyrazolo[4,3-b]pyridin-7-amine]
IC50 (PDE1B; read-out: PDE1B, IC50): 85 nM | IC50 (PDE1C; [1]): 1900 nM | IC50 (PDE1A; [1]): 550 nM

CCOc1ncccc1-c1cc(NCc2cnc(C)s2)c2c(n1)c(C)nn2C(C)C [Example 32, 5-(2-ethoxy-3-pyridyl)-1-isopropyl-3-methyl-N-[(2-methylthiazol-5-yl)methyl]pyrazolo[4,3-b]pyridin-7-amine]
IC50 (PDE1B; read-out: PDE1B, IC50): 0.14 nM | IC50 (PDE1C; [1]): 6.2 nM | IC50 (PDE1A; [1]): 4.6 nM

CCOc1ncccc1-c1cc(NCc2csc(C)n2)c2c(n1)c(C)nn2C1COC1 [Example 113, 5-(2-ethoxy-3-pyridyl)-3-methyl-N-[(2-methylthiazol-4-yl)methyl]-1-(oxetan-3-yl)pyrazolo[4,3-b]pyridin-7-amine]
IC50 (PDE1B; read-out: PDE1B, IC50): 5.7 nM | IC50 (PDE1C; [1]): 130 nM | IC50 (PDE1A; [1]): 110 nM

[2H]C([2H])([2H])C([2H])([2H])Oc1ncccc1-c1cc(NCc2cccnc2OC)c2c(n1)c(C)nn2C(C)C [Example 181, 5-(2-(ethoxy-d5)pyridin-3-yl)-1-isopropyl-N-((2-methoxypyridin-3-yl)methyl)-3-methyl-1H-pyrazolo[4,3-b]pyridin-7-amine]
IC50 (PDE1B; PDE1B, IC50 (nM)): 1.6 nM | IC50 (PDE1C): 84 nM | IC50 (PDE1A): 31 nM

Cc1nn(C(C)C)c2c(NCc3cnn(C)c3)cc(-n3cncn3)nc12 [Example 185, 1-isopropyl-3-methyl-N-((1-methyl-1H-pyrazol-4-yl)methyl)-5-(1H-1,2,4-triazol-1-yl)-1H-pyrazolo[4,3-b]pyridin-7-amine]
IC50 (PDE1B; read-out: PDE1B, IC50): 24 nM | IC50 (PDE1C; [1]): 92 nM | IC50 (PDE1A; [1]): 100 nM

CCOc1ncccc1-c1cc(NCc2ccn(C)n2)c2c(cnn2C(C)C)n1 [Example 19, 5-(2-ethoxypyridin-3-yl)-1-isopropyl-N-((1-methyl-1H-pyrazol-3-yl)methyl)-1H-pyrazolo[4,3-b]pyridin-7-amine]
IC50 (PDE1B; read-out: PDE1B, IC50): 4.6 nM | IC50 (PDE1C; [1]): 150 nM | IC50 (PDE1A; [1]): 66 nM

COc1ncccc1CNc1cc(-c2cccnc2OC(F)F)nc2c(C)nn(C(C)C)c12 [Example 188, 5-[2-(difluoromethoxy)-3-pyridyl]-1-isopropyl-N-[(2-methoxy-3-pyridyl)methyl]-3-methyl-pyrazolo[4,3-b]pyridin-7-amine]
IC50 (PDE1B; read-out: PDE1B, IC50): 7.8 nM | IC50 (PDE1C; [1]): 60 nM | IC50 (PDE1A; [1]): 61 nM

CCOc1ncccc1-c1cc(NCc2cc(C)on2)c2c(n1)c(C)nn2C(C)C [Example 3, 5-(2-ethoxy-3-pyridyl)-1-isopropyl-3-methyl-N-[(5-methylisoxazol-3-yl)methyl]pyrazolo[4,3-b]pyridin-7-amine]
IC50 (PDE1B; read-out: PDE1B, IC50): 0.11 nM | IC50 (PDE1C; [1]): 3 nM | IC50 (PDE1A; [1]): 0.8 nM

CCOc1ncccc1-c1cc(NCc2ncn(C)n2)c2c(n1)c(C)nn2C1COC1 [Example 163, 5-(2-ethoxy-3-pyridyl)-3-methyl-N-[(1-methyl-1,2,4-triazol-3-yl)methyl]-1-(oxetan-3-yl)pyrazolo[4,3-b]pyridin-7-amine]
IC50 (PDE1B; read-out: PDE1B, IC50): 14 nM | IC50 (PDE1C; [1]): 120 nM | IC50 (PDE1A; [1]): 120 nM

CCOc1ncccc1-c1cc(NCc2cc(C)n(C)n2)c2c(n1)c(C)nn2C(C)C [Example 54, N-[(1,5-dimethylpyrazol-3-yl)methyl]-5-(2-ethoxy-3-pyridyl)-1-isopropyl-3-methyl-pyrazolo[4,3-b]pyridin-7-amine]
IC50 (PDE1B; read-out: PDE1B, IC50): 0.18 nM | IC50 (PDE1C; [1]): 4.6 nM | IC50 (PDE1A; [1]): 0.39 nM

CCCn1ncc2nc(-c3cccnc3OCC)cc(NCc3cnn(C)c3)c21 [Example 13, 5-(2-ethoxy-3-pyridyl)-N-[(1-methylpyrazol-4-yl)methyl]-1-propyl-pyrazolo[4,3-b]pyridin-7-amine]
IC50 (PDE1B; read-out: PDE1B, IC50): 15 nM | IC50 (PDE1C; [1]): 340 nM | IC50 (PDE1A; [1]): 90 nM

CCOc1ncccc1-c1cc(NCc2ccccc2OC)c2c(n1)c(C)nn2C(C)C [Example 88, 5-(2-ethoxy-3-pyridyl)-1-isopropyl-N-[(2-methoxyphenyl)methyl]-3-methyl-pyrazolo[4,3-b]pyridin-7-amine]
IC50 (PDE1B; read-out: PDE1B, IC50): 5.1 nM | IC50 (PDE1C; [1]): 170 nM | IC50 (PDE1A; [1]): 110 nM

CCOc1ncccc1-c1cc(CCc2ncn(C)n2)c2c(n1)c(C)nn2C(C)C [Example 160, 5-(2-ethoxy-3-pyridyl)-1-isopropyl-3-methyl-7-[2-(1-methyl-1,2,4-triazol-3-yl)ethyl]pyrazolo[4,3-b]pyridine]
IC50 (PDE1B; read-out: PDE1B, IC50): 3.9 nM | IC50 (PDE1C; [1]): 56 nM | IC50 (PDE1A; [1]): 23 nM

CCOc1ncccc1-c1cc(NCc2ccnn2C)c2c(cnn2C(C)C)n1 [Example 18, 5-(2-ethoxypyridin-3-yl)-1-isopropyl-N-((1-methyl-1H-pyrazol-5-yl)methyl)-1H-pyrazolo[4,3-b]pyridin-7-amine]
IC50 (PDE1B; read-out: PDE1B, IC50): 73 nM | IC50 (PDE1C; [1]): 640 nM | IC50 (PDE1A; [1]): 450 nM

CCOc1ncccc1-c1cc(NCc2c[nH]c(C)n2)c2c(n1)c(C)nn2C(C)C [Example 46, 5-(2-ethoxypyridin-3-yl)-1-isopropyl-3-methyl-N-((2-methyl-1H-imidazol-4-yl)methyl)-1H-pyrazolo[4,3-b]pyridin-7-amine]
IC50 (PDE1B; read-out: PDE1B, IC50): 0.42 nM | IC50 (PDE1C; [1]): 9.7 nM | IC50 (PDE1A; [1]): 5 nM

CCOc1ncccc1-c1cc(NCc2cccc(OC)n2)c2c(n1)c(C)nn2C(C)C [Example 102, 5-(2-ethoxy-3-pyridyl)-1-isopropyl-N-[(6-methoxy-2-pyridyl)methyl]-3-methyl-pyrazolo[4,3-b]pyridin-7-amine]
IC50 (PDE1B; read-out: PDE1B, IC50): 0.73 nM | IC50 (PDE1C; [1]): 34 nM | IC50 (PDE1A; [1]): 8 nM

COc1ncccc1CNc1cc(-c2cccnc2C(F)(F)F)nc2c(C)nn(C(C)C)c12 [Example 183, 1-isopropyl-N-((2-methoxypyridin-3-yl)methyl)-3-methyl-5-(2-(trifluoromethyl)pyridin-3-yl)-1H-pyrazolo[4,3-b]pyridin-7-amine]
IC50 (PDE1B; read-out: PDE1B, IC50): 38 nM | IC50 (PDE1C; [1]): 350 nM | IC50 (PDE1A; [1]): 290 nM

CCOc1ncccc1-c1cc(CNc2cncc(OC)c2)c2c(n1)c(C)nn2C(C)C [Example 157, N-[[5-(2-ethoxy-3-pyridyl)-1-isopropyl-3-methyl-pyrazolo[4,3-b]pyridin-7-yl]methyl]-5-methoxy-pyridin-3-amine]
IC50 (PDE1B; read-out: PDE1B, IC50): 14 nM | IC50 (PDE1C; [1]): 77 nM | IC50 (PDE1A; [1]): 34 nM

CCOc1ncccc1-c1cc(NCc2nccnc2OC)c2c(n1)c(C)nn2C(C)C [Example 91, 5-(2-ethoxy-3-pyridyl)-1-isopropyl-N-[(3-methoxypyrazin-2-yl)methyl]-3-methyl-pyrazolo[4,3-b]pyridin-7-amine]
IC50 (PDE1B; read-out: PDE1B, IC50): 2.3 nM | IC50 (PDE1C; [1]): 70 nM | IC50 (PDE1A; [1]): 27 nM

CCOc1ncccc1-c1cc(NCc2nn[nH]n2)c2c(n1)c(C)nn2C(C)C [Example 99, 5-(2-ethoxy-3-pyridyl)-1-isopropyl-3-methyl-N-(2H-tetrazol-5-ylmethyl)pyrazolo[4,3-b]pyridin-7-amine]
IC50 (PDE1B; read-out: PDE1B, IC50): 0.31 nM | IC50 (PDE1C; [1]): 3.8 nM | IC50 (PDE1A; [1]): 0.73 nM

CCOc1ncccc1-c1cc(NCc2n[nH]c(C)n2)c2c(n1)c(C)nn2C(C)C [Example 55, 5-(2-ethoxy-3-pyridyl)-1-isopropyl-3-methyl-N-[(5-methyl-1H-1,2,4-triazol-3-yl)methyl]pyrazolo[4,3-b]pyridin-7-amine]
IC50 (PDE1B; read-out: PDE1B, IC50): 0.51 nM | IC50 (PDE1C; [1]): 5.5 nM | IC50 (PDE1A; [1]): 3.4 nM

CCOc1ncccc1-c1cc(NCc2ncn(C)n2)c2c(cnn2C(C)C)n1 [Example 56, 5-(2-ethoxy-3-pyridyl)-1-isopropyl-N-[(1-methyl-1,2,4-triazol-3-yl)methyl]pyrazolo[4,3-b]pyridin-7-amine]
IC50 (PDE1B; read-out: PDE1B, IC50): 1 nM | IC50 (PDE1C; [1]): 45 nM | IC50 (PDE1A; [1]): 16 nM

CCOc1ncccc1-c1cc(NCc2ccccc2F)c2c(n1)c(C)nn2C(C)C [Example 89, 5-(2-ethoxy-3-pyridyl)-N-[(2-fluorophenyl)methyl]-1-isopropyl-3-methyl-pyrazolo[4,3-b]pyridin-7-amine]
IC50 (PDE1B; read-out: PDE1B, IC50): 1.5 nM | IC50 (PDE1C; [1]): 93 nM | IC50 (PDE1A; [1]): 61 nM

CCOc1ncccc1-c1cc(NCc2ncc(C)s2)c2c(n1)c(C)nn2C(C)C [Example 2, 5-(2-ethoxy-3-pyridyl)-1-isopropyl-3-methyl-N-[(5-methylthiazol-2-yl)methyl]pyrazolo[4,3-b]pyridin-7-amine]
IC50 (PDE1B; read-out: PDE1B, IC50): 0.071 nM | IC50 (PDE1C; [1]): 4.9 nM | IC50 (PDE1A; [1]): 0.46 nM

Cc1nocc1-c1cc(NCc2cnn(C)c2)c2c(n1)c(C)nn2C(C)C [Example 194, 1-isopropyl-3-methyl-5-(3-methylisoxazol-4-yl)-N-[(1-methylpyrazol-4-yl)methyl]pyrazolo[4,3-b]pyridin-7-amine]
IC50 (PDE1B; read-out: PDE1B, IC50): 23 nM | IC50 (PDE1C; [1]): 21 nM | IC50 (PDE1A; [1]): 95 nM

CCOc1ncccc1-c1cc(NCc2ncc(OC)cn2)c2c(n1)c(C)nn2C(C)C [Example 176, 5-(2-ethoxy-3-pyridyl)-1-isopropyl-N-[(5-methoxypyrimidin-2-yl)methyl]-3-methyl-pyrazolo[4,3-b]pyridin-7-amine]
IC50 (PDE1B; read-out: PDE1B, IC50): 12 nM | IC50 (PDE1C; [1]): 93 nM | IC50 (PDE1A; [1]): 81 nM

CCOc1ncccc1-c1cc(NCc2nccc(OC)n2)c2c(n1)c(C)nn2C(C)C [Example 189, 5-(2-ethoxy-3-pyridyl)-1-isopropyl-N-[(4-methoxypyrimidin-2-yl)methyl]-3-methyl-pyrazolo[4,3-b]pyridin-7-amine]
IC50 (PDE1B; read-out: PDE1B, IC50): 0.49 nM | IC50 (PDE1C; [1]): 19 nM | IC50 (PDE1A; [1]): 3.9 nM

Cc1nn(C(C)C)c2c(NCc3cnn(C)c3)cc(-c3ccccc3)nc12 [Example 64, 1-isopropyl-3-methyl-N-[(1-methylpyrazol-4-yl)methyl]-5-phenyl-pyrazolo[4,3-b]pyridin-7-amine]
IC50 (PDE1B; read-out: PDE1B, IC50): 12 nM | IC50 (PDE1C; [1]): 47 nM | IC50 (PDE1A; [1]): 52 nM
